We go through 24 compounds from US20250275959A1, “COMPOUNDS AND METHODS OF THEIR USE” (LEXICON PHARMACEUTICALS, INC., priority 2024, published 2025).

Usually IC50 stands for the concentration that inhibits the measured activity by half.

The target of assay [1] is T1, hACSL5 (Homo sapiens (Human), UniProt Q9ULC5). As to the kind of experiment: Human ACSL5 coupled enzyme Amplex Red assay. The assay is classed as biochemical. The conditions noted are these: read-out: hACSL5 IC50. The method in brief: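 Amplex Red coupled readout: 1 mM ATP, 25 μM oleate and 30 μM CoA were added to compound-preincubated enzyme (20 nM, residues 33-683, insect-cell expressed, His-tagged) with coupling peroxidase and acyl-CoA oxidase at pH 7.6. Signal was read at 535/590 nm after 10 minutes at 25° C., and Hill fits yielded half-maximal and maximal inhibition.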
Target sequence in this assay (Q9ULC5 33-683): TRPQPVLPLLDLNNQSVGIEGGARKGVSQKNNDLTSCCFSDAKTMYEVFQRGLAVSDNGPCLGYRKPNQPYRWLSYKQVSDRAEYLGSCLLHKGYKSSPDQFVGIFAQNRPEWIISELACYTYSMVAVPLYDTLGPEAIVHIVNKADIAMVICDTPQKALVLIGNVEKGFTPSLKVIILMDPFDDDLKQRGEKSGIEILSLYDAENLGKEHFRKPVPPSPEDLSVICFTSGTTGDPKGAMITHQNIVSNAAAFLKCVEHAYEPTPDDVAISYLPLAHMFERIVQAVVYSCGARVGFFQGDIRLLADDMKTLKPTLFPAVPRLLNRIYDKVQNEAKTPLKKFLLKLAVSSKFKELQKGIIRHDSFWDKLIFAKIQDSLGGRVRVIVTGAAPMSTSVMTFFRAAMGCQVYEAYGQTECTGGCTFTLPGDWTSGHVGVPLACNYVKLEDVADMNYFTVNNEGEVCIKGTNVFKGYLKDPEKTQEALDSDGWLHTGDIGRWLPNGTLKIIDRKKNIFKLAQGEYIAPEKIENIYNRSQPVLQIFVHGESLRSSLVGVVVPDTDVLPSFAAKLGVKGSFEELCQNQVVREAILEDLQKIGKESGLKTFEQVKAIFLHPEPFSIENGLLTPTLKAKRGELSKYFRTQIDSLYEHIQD

Assay [2] deals with T1, hACSL5. As to the kind of experiment: Cell-based assay (CBA) with B12FA in hACSL5-transfected Expi293F / FlpIn TRex293 cells. To be noted: hACSL5-expressing cells. A digest of the protocol:
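hACSL5-expressing Expi293F or tetracycline-induced FlpIn TRex293 cells, serum- and glucose-starved 1 h, then treated 3 h with serially diluted compound plus 20 µM B12FA. After fixation, 630/520 nm emission ratio (ex 485 nm) gave % inhibition versus no-inhibitor and 10 µM compound/non-induced controls; IC50 by Hill fit.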
Target sequence in this assay (Q9ULC5 whole entry, the tested form may be a part): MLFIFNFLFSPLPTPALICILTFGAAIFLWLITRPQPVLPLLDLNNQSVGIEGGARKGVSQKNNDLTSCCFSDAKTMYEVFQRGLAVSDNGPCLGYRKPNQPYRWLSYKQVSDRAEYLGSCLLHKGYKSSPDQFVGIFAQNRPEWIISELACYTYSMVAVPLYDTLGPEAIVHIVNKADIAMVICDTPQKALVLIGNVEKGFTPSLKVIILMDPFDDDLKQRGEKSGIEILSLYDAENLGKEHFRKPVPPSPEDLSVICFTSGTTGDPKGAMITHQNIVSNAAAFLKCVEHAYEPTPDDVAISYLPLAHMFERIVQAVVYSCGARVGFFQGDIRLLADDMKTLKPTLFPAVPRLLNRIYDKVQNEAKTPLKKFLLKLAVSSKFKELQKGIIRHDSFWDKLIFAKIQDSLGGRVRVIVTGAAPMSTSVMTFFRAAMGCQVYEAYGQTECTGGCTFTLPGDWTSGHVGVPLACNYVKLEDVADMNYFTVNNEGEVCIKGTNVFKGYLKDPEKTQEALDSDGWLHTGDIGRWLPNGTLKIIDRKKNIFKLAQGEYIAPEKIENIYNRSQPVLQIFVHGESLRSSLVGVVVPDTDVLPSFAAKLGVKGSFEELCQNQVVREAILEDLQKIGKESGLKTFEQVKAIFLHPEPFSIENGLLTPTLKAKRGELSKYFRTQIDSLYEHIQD

Consider `CC[C@@H](Oc1ccc(C(=O)NS(=O)(=O)N2CCN(C)CC2)cc1C(F)(F)F)c1ccc(OC2CC(OC)C2)cn1` (stereo partly drawn) [4-((R)-1-(5-((1R,3R)-3-methoxycyclobutoxy)pyridin-2-yl)propoxy)-N-((4-methylpiperazin-1-yl)sulfonyl)-3-(trifluoromethyl)benzamide], for which the IC50 at hACSL5 [1] and against hACSL5 [2] was 100 to 500 nM in each case.
Consider `CC[C@@H](Oc1ccc(C(=O)NS(=O)(=O)c2ccc(OCCNC3CC3)cc2)c(F)c1F)c1ccc(OCC2CC2)cn1` [(R)-N-((4-(2-(cyclopropylamino)ethoxy)phenyl)sulfonyl)-4-(1-(5-(cyclopropylmethoxy)pyridin-2-yl)propoxy)-2,3-difluorobenzamide], for which the concentration for half-maximal inhibition (IC50) on hACSL5 [1] and on hACSL5 [2] was < 100 nM throughout.
As to `CC[C@@H](Oc1ccc(C(=O)NS(=O)(=O)c2ccc(OCc3c[nH]cn3)cc2)c(F)c1F)c1ccc(OCCOC)cn1` [(R)-N-((4-((1H-imidazol-4-yl)methoxy)phenyl)sulfonyl)-2,3-difluoro-4-(1-(5-(2-methoxyethoxy)pyridin-2-yl)propoxy)benzamide], the values for the IC50 on hACSL5 [1] and at hACSL5 [2] were < 100 nM and > 500 nM, respectively.
For `CC[C@@H](Oc1ccc(C(=O)NS(=O)(=O)c2ccc(OC3CCNCC3)cc2)c(F)c1F)c1ccc(OCC2CC2)cn1` [(R)-4-(1-(5-(cyclopropylmethoxy)pyridin-2-yl)propoxy)-2,3-difluoro-N-((4-(piperidin-4-yloxy)phenyl)sulfonyl)benzamide], the IC50 on hACSL5 [1] was < 100 nM; on hACSL5 [2], > 500 nM.
The like results for `CC[C@@H](Oc1ccc(C(=O)NS(=O)(=O)N2CCN(C3CCC3)CC2)c(F)c1F)c1ccc(OCC2CC2)cn1` [(R)-N-((4-cyclobutylpiperazin-1-yl)sulfonyl)-4-(1-(5-(cyclopropylmethoxy)pyridin-2-yl)propoxy)-2,3-difluorobenzamide] were, in that order, < 100 nM and < 100 nM.
The like results for `CC[C@@H](Oc1ccc(C(=O)NS(=O)(=O)N2C[C@@H]3C[C@H]2CN3C)c(F)c1F)c1ccc(OCC2CC2)cn1` [4-((R)-1-(5-(cyclopropylmethoxy)pyridin-2-yl)propoxy)-2,3-difluoro-N-(((1S,4S)-5-methyl-2,5-diazabicyclo[2.2.1]heptan-2-yl)sulfonyl)benzamide] were, in that order, 100 to 500 nM and 100 to 500 nM.
The like results for `CC[C@@H](Oc1ccc(C(=O)NS(=O)(=O)c2ccc(OC3CCN(CC(F)F)CC3)cc2)c(F)c1F)c1ccc(OCC2CC2)cn1` [(R)-4-(1-(5-(cyclopropylmethoxy)pyridin-2-yl)propoxy)-N-((4-((1-(2,2-difluoroethyl)piperidin-4-yl)oxy)phenyl)sulfonyl)-2,3-difluorobenzamide] were, in that order, < 100 nM and 100 to 500 nM.
As to `CC[C@@H](Oc1ccc(C(=O)NS(=O)(=O)N2CCN(C)CC2)c(F)c1F)c1cc(Oc2ccccn2)ccn1` [(R)-2,3-difluoro-N-((4-methylpiperazin-1-yl)sulfonyl)-4-(1-(4-(pyridin-2-yloxy)pyridin-2-yl)propoxy)benzamide], the IC50 is < 100 nM on hACSL5 [1] and 100 to 500 nM on hACSL5 [2].
The like results for `CC[C@@H](Oc1ccc(C(=O)NS(=O)(=O)c2ccc(OCCN3CCCC3)nc2)c(F)c1F)c1ccc(OCC2CC2)cn1` [(R)-4-(1-(5-(cyclopropylmethoxy)pyridin-2-yl)propoxy)-2,3-difluoro-N-((6-(2-(pyrrolidin-1-yl)ethoxy)pyridin-3-yl)sulfonyl)benzamide] were, in that order, < 100 nM and 100 to 500 nM.
For `CC[C@@H](Oc1ccc(C(=O)NS(=O)(=O)N2CCN(C3CCCC3)CC2)c(F)c1F)c1ccc(OCC2CC2)cn1` [(R)-N-((4-cyclopentylpiperazin-1-yl)sulfonyl)-4-(1-(5-(cyclopropylmethoxy)pyridin-2-yl)propoxy)-2,3-difluorobenzamide], the values for the IC50 at hACSL5 [1] and on hACSL5 [2] were < 100 nM and 100 to 500 nM, respectively.
The like results for `CC[C@@H](Oc1ccc(C(=O)NS(=O)(=O)N2CCN(C(C)C)CC2)c(F)c1F)c1ccc(OCC2CC2)cn1` [(R)-4-(1-(5-(cyclopropylmethoxy)pyridin-2-yl)propoxy)-2,3-difluoro-N-((4-isopropylpiperazin-1-yl)sulfonyl)benzamide] were, in that order, 100 to 500 nM and 100 to 500 nM.
The like results for `C[C@@H](Oc1ccc(C(=O)NS(=O)(=O)c2ccc(OCCN(C)C)cc2)c(F)c1F)c1ccc(Oc2ccccn2)cn1` [(R)-N-((4-(2-(dimethylamino)ethoxy)phenyl)sulfonyl)-2,3-difluoro-4-(1-(5-(pyridin-2-yloxy)pyridin-2-yl)ethoxy)benzamide] were, in that order, < 100 nM and 100 to 500 nM.
The like results for `C[C@@H](Oc1ccc(C(=O)NS(=O)(=O)c2ccc(OCCN(C)C)cc2)cc1C(F)(F)F)c1ccc(Oc2ccccn2)cn1` [(R)-N-((4-(2-(dimethylamino)ethoxy)phenyl)sulfonyl)-4-(1-(5-(pyridin-2-yloxy)pyridin-2-yl)ethoxy)-3-(trifluoromethyl)benzamide] were, in that order, < 100 nM and < 100 nM.
Regarding `CC[C@@H](Oc1ccc(C(=O)NS(=O)(=O)c2ccc(OC3CN(C)C3)cc2)c(F)c1F)c1ccc(OCC2CC2)cn1` [(R)-4-(1-(5-(cyclopropylmethoxy)pyridin-2-yl)propoxy)-2,3-difluoro-N-((4-((1-methylazetidin-3-yl)oxy)phenyl)sulfonyl)benzamide], the IC50 is < 100 nM on hACSL5 [1] and 100 to 500 nM against hACSL5 [2].
The like results for `CC[C@@H](Oc1ccc(C(=O)NS(=O)(=O)c2ccc(OC3CCN(C)CC3)cc2)c(F)c1F)c1ccc(OCC2CC2)cn1` [(R)-4-(1-(5-(cyclopropylmethoxy)pyridin-2-yl)propoxy)-2,3-difluoro-N-((4-((1-methylpiperidin-4-yl)oxy)phenyl)sulfonyl)benzamide] were, in that order, < 100 nM and < 100 nM.
On to `C[C@@H](Oc1ccc(C(=O)NS(=O)(=O)N2CCC(OC3CCN(C)CC3)CC2)cc1C(F)(F)F)c1ccc(Oc2ccccn2)cn1` [(R)-N-((4-((1-methylpiperidin-4-yl)oxy)piperidin-1-yl)sulfonyl)-4-(1-(5-(pyridin-2-yloxy)pyridin-2-yl)ethoxy)-3-(trifluoromethyl)benzamide], for which the IC50 on hACSL5 [1] and at hACSL5 [2] was < 100 nM throughout.
For the compound `CC[C@@H](Oc1ccc(C(=O)NS(=O)(=O)c2ccc(CN3CCN(CC)CC3)nc2)c(F)c1F)c1ccc(OCC2CC2)cn1` [(R)-4-(1-(5-(cyclopropylmethoxy)pyridin-2-yl)propoxy)-N-((6-((4-ethylpiperazin-1-yl)methyl)pyridin-3-yl)sulfonyl)-2,3-difluorobenzamide], the IC50 at hACSL5 [1] was < 100 nM; on hACSL5 [2], > 500 nM.
The like results for `CC[C@@H](Oc1ccc(C(=O)NS(=O)(=O)N2CCN(C)CC2(C)C)c(F)c1F)c1ccc(OCC2CC2)cn1` [(R)-4-(1-(5-(cyclopropylmethoxy)pyridin-2-yl)propoxy)-2,3-difluoro-N-((2,2,4-trimethylpiperazin-1-yl)sulfonyl)benzamide] were, in that order, < 100 nM and < 100 nM.
The like results for `CC[C@@H](Oc1ccc(C(=O)NS(=O)(=O)N2CCN(C3CCCCC3)CC2)c(F)c1F)c1ccc(Oc2ccccn2)cn1` [(R)-N-((4-cyclohexylpiperazin-1-yl)sulfonyl)-2,3-difluoro-4-(1-(5-(pyridin-2-yloxy)pyridin-2-yl)propoxy)benzamide] were, in that order, < 100 nM and 100 to 500 nM.
For the compound `CC[C@@H](Oc1ccc(C(=O)NS(=O)(=O)N2C[C@@H](C)N(C)[C@@H](C)C2)c(F)c1F)c1ccc(OCC2CC2)cn1` [4-((R)-1-(5-(cyclopropylmethoxy)pyridin-2-yl)propoxy)-2,3-difluoro-N-(((3S,5R)-3,4,5-trimethylpiperazin-1-yl)sulfonyl)benzamide], the IC50 on hACSL5 [1] and on hACSL5 [2] was < 100 nM in each case.
As to `CC[C@@H](Oc1ccc(C(=O)NS(=O)(=O)c2ccc(OC3CCN(CCO)CC3)cc2)c(F)c1F)c1ccc(OCC2CC2)cn1` [(R)-4-(1-(5-(cyclopropylmethoxy)pyridin-2-yl)propoxy)-2,3-difluoro-N-((4-((1-(2-hydroxyethyl)piperidin-4-yl)oxy)phenyl)sulfonyl)benzamide], the IC50 on hACSL5 [1] is < 100 nM; on hACSL5 [2], 100 to 500 nM.
For `CC[C@@H](Oc1ccc(C(=O)NS(=O)(=O)N2CCN(C)[C@H](C)C2)c(F)c1F)c1ccc(OCC2CC2)cn1` [4-((R)-1-(5-(cyclopropylmethoxy)pyridin-2-yl)propoxy)-N-(((R)-3,4-dimethylpiperazin-1-yl)sulfonyl)-2,3-difluorobenzamide], the IC50 at hACSL5 [1] and at hACSL5 [2] was < 100 nM each time.
Consider `CC[C@@H](Oc1ccc(C(=O)NS(=O)(=O)c2ccc(OCCN(C)C)cc2)c(F)c1F)c1cc(OCC2CC2)ccn1` [(R)-4-(1-(4-(cyclopropylmethoxy)pyridin-2-yl)propoxy)-N-((4-(2-(dimethylamino)ethoxy)phenyl)sulfonyl)-2,3-difluorobenzamide], for which the IC50 on hACSL5 [1] and against hACSL5 [2] was 100 to 500 nM in each case.
Regarding `CC[C@@H](Oc1ccc(C(=O)NS(=O)(=O)c2ccc(OCCN3CC[C@H](F)C3)cc2)c(F)c1F)c1ccc(OCC2CC2)cn1` [4-((R)-1-(5-(cyclopropylmethoxy)pyridin-2-yl)propoxy)-2,3-difluoro-N-((4-(2-((S)-3-fluoropyrrolidin-1-yl)ethoxy)phenyl)sulfonyl)benzamide], the results for the IC50 at hACSL5 [1] and on hACSL5 [2] were < 100 nM and 100 to 500 nM, respectively.
